According to ChEMBL document CHEMBL1135861, “The discovery of novel small molecule non-peptide gonadotropin releasing hormone (GnRH) receptor antagonists” (Bioorg Med Chem Lett, 2002):

Experiments:
[1] = biological target: T1, Gonadotropin-releasing hormone receptor (Rattus norvegicus, UniProt P30969); test: Binding affinity to rat gonadotropin-releasing hormone receptor
T1 sequence (P30969 whole entry): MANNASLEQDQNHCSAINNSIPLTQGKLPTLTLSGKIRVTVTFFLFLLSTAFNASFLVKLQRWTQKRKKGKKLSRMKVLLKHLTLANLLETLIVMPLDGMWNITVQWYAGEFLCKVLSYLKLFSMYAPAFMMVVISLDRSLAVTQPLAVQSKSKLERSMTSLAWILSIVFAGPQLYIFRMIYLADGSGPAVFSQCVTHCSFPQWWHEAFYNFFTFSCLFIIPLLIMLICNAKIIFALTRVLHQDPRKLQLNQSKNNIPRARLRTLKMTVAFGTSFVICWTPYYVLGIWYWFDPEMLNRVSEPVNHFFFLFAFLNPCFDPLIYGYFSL

[2] = biological target: T2, Gonadotropin-releasing hormone receptor (Homo sapiens, UniProt P30968); test: In vitro binding affinity to human gonadotropin-releasing hormone receptor
T2 sequence (P30968 whole entry): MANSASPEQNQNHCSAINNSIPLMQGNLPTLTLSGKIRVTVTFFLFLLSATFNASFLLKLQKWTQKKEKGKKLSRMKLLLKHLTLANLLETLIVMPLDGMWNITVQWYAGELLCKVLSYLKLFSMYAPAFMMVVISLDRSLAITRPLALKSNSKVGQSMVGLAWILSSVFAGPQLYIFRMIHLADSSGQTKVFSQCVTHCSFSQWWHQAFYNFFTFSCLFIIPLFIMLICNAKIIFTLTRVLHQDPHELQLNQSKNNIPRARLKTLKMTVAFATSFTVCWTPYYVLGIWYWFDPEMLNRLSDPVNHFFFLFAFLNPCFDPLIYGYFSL

SMILES: Cc1cc2c(cc1Cc1ccc(C(=O)NCC3CCN(C(=O)OC(C)(C)C)CC3)o1)C(C)(C)CCC2(C)C
- Ki [1]: 3.26 µM
- Ki [2]: 0.054 µM

SMILES: Cc1cc2c(cc1Cc1ccc(C(=O)NCC3CCC(C#N)CC3)o1)C(C)(C)CCC2(C)C (stereo not drawn)
- Ki [1]: 0.56 µM
- Ki [2]: 0.017 µM

SMILES: Cc1cc2c(cc1Cc1ccc(C(=O)NCC3CCCCC3)o1)C(C)(C)CCC2(C)C
- Ki [1]: 1.55 µM
- Ki [2]: 0.18 µM

SMILES: Cc1cc2c(cc1Cc1ccc(C(=O)NCC3CCC(CNC(=O)C(F)(F)F)CC3)o1)C(C)(C)CCC2(C)C (stereo not drawn)
- Ki [1]: 2.72 µM
- Ki [2]: 0.066 µM

SMILES: Cc1cc2c(cc1Cc1ccc(C(=O)NCc3ccc(CN)cc3)o1)C(C)(C)CCC2(C)C
- Ki [1]: 0.28 µM
- Ki [2]: 0.14 µM

SMILES: Cc1ccc(CNC(=O)c2ccc(Cc3cc4c(cc3C)C(C)(C)CCC4(C)C)o2)cc1
- Ki [1]: 0.06 µM
- Ki [2]: 0.083 µM

SMILES: COC(=O)[C@H]1CC[C@H](CNC(=O)c2ccc(Cc3cc4c(cc3C)C(C)(C)CCC4(C)C)o2)CC1
- Ki [1]: 0.83 µM
- Ki [2]: 0.024 µM

SMILES: Cc1cc2c(cc1Cc1ccc(C(=O)NCC3CCC(CNCc4c(C)noc4C)CC3)o1)C(C)(C)CCC2(C)C (stereo not drawn)
- Ki [1]: 1.2 µM
- Ki [2]: 0.18 µM

SMILES: Cc1cc2c(cc1Cc1ccc(C(=O)NC[C@H]3CC[C@H](C(N)=O)CC3)o1)C(C)(C)CCC2(C)C
- Ki [1]: 0.27 µM
- Ki [2]: 0.013 µM

SMILES: Cc1cc2c(cc1Cc1ccc(C(=O)NCc3ccc(CN(C)C)cc3)o1)C(C)(C)CCC2(C)C
- Ki [1]: 0.14 µM
- Ki [2]: 0.079 µM

SMILES: Cc1cc2c(cc1Cc1ccc(C(=O)NCC3CCCC(CNC(=O)C(F)(F)F)C3)o1)C(C)(C)CCC2(C)C (stereo not drawn)
- Ki [1]: 0.25 µM
- Ki [2]: 0.02 µM

SMILES: Cc1cc2c(cc1Cc1ccc(C(=O)NCc3ccccc3)o1)C(C)(C)CCC2(C)C
- Ki [1]: 0.24 µM
- Ki [2]: 0.102 µM

SMILES: Cc1cc2c(cc1Cc1ccc(C(=O)NC[C@H]3CC[C@H](CNC(=N)N)CC3)o1)C(C)(C)CCC2(C)C
- Ki [1]: 0.385 µM
- Ki [2]: 0.016 µM

SMILES: Cc1cc2c(cc1Cc1ccc(C(=O)NCC3CCN(C(=N)N)CC3)o1)C(C)(C)CCC2(C)C
- Ki [1]: 2.04 µM
- Ki [2]: 0.22 µM

SMILES: Cc1cc2c(cc1Cc1ccc(C(=O)NCc3cccc(CN)c3)o1)C(C)(C)CCC2(C)C
- Ki [1]: 0.094 µM
- Ki [2]: 0.091 µM

SMILES: Cc1cc2c(cc1Cc1ccc(C(=O)NC[C@H]3CC[C@@H](CNC(=N)N)CC3)o1)C(C)(C)CCC2(C)C
- Ki [1]: 0.73 µM
- Ki [2]: 0.04 µM

SMILES: Cc1cc2c(cc1Cc1ccc(C(=O)NCC3CCNCC3)o1)C(C)(C)CCC2(C)C
- Ki [1]: 5.21 µM
- Ki [2]: 0.7 µM

SMILES: CCOC(=O)[C@H]1CC[C@H](CNC(=O)c2ccc(Cc3cc4c(cc3C)C(C)(C)CCC4(C)C)o2)CC1
- Ki [1]: 2.73 µM
- Ki [2]: 0.051 µM

SMILES: Cc1cc2c(cc1Cc1ccc(C(=O)NCC3CCC(CN)CC3)o1)C(C)(C)CCC2(C)C (stereo not drawn)
- Ki [1]: 0.73 µM
- Ki [2]: 0.042 µM

SMILES: Cc1cc2c(cc1Cc1ccc(C(=O)NCC3CCCC(CN)C3)o1)C(C)(C)CCC2(C)C (stereo not drawn)
- Ki [1]: 0.89 µM
- Ki [2]: 0.174 µM

SMILES: Cc1cnc(CNC(=O)c2ccc(Cc3cc4c(cc3C)C(C)(C)CCC4(C)C)o2)cn1
- Ki [1]: 0.055 µM
- Ki [2]: 0.056 µM

SMILES: Cc1cc2c(cc1Cc1ccc(C(=O)NCC3CCC(CNC(=N)N)CC3)o1)C(C)(C)CCC2(C)C (stereo not drawn)
- Ki [1]: 0.52 µM
- Ki [2]: 0.04 µM

SMILES: Cc1cc2c(cc1Cc1ccc(C(=O)NCC3CCC(CNCc4cc(=O)[nH]c(=O)[nH]4)CC3)o1)C(C)(C)CCC2(C)C (stereo not drawn)
- Ki [1]: 0.865 µM
- Ki [2]: 0.024 µM

SMILES: Cc1cc2c(cc1Cc1ccc(C(=O)NC[C@H]3CC[C@H](C(=O)O)CC3)o1)C(C)(C)CCC2(C)C
- Ki [1]: 3 µM
- Ki [2]: 0.25 µM
